Measurements reported in ChEMBL document CHEMBL5137080, “Discovery of Novel 7-Hydroxy-5-oxo-4,5-dihydrothieno[3,2-b]pyridine-6-carboxamide Derivatives with Potent and Selective Antifungal Activity against Cryptococcus Species” (J Med Chem, 2022).
In brackets after ≈: the same amount, converted by molar mass.

Assays:
[1] = system: Candida albicans; assay: Antifungal activity against Candida albicans SC5314 assessed as fungal growth inhibition incubated for 48 hrs by broth microdilution method; format: functional
[2] = system: Aspergillus fumigatus; assay: Antifungal activity against Aspergillus fumigatus 7544 assessed as fungal growth inhibition incubated for 48 hrs by broth microdilution method; format: functional
[3] = system: Cryptococcus neoformans; assay: Antifungal activity against Cryptococcus neoformans H99 assessed as fungal growth inhibition incubated for 72 hrs by broth microdilution method; format: functional
[4] = system: Cryptococcus gattii species complex; assay: Antifungal activity against Cryptococcus gattii E566 assessed as fungal growth inhibition incubated for 72 hrs by broth microdilution method; format: functional
[5] = system: Cryptococcus deuterogattii; assay: Antifungal activity against Cryptococcus gattii WM178 assessed as fungal growth inhibition incubated for 72 hrs by broth microdilution method; format: functional, Cryptococcus gattii species complex
[6] = system: Cryptococcus gattii; assay: Antifungal activity against Cryptococcus gattii WM179 assessed as fungal growth inhibition incubated for 72 hrs by broth microdilution method; format: functional, Cryptococcus gattii species complex
[7] = system: [Candida] auris; assay: Antifungal activity against Candida auris CBS 12372 assessed as fungal growth inhibition incubated for 48 hrs by broth microdilution method; format: functional; details: Candidozyma auris
[8] = system: Nakaseomyces glabratus; assay: Antifungal activity against Candida glabrata ATCC1182 assessed as fungal growth inhibition incubated for 48 hrs by broth microdilution method; format: functional
[9] = system: Cryptococcus neoformans; assay: Antifungal activity against Cryptococcus neoformans clinical isolate BJ3 assessed as fungal growth inhibition incubated for 72 hrs by broth microdilution method; format: functional
[10] = system: Pichia kudriavzevii; assay: Antifungal activity against Candida krusei ATCC2340 assessed as fungal growth inhibition incubated for 48 hrs by broth microdilution method; format: functional
[11] = system: Candida tropicalis; assay: Antifungal activity against Candida tropicalis ATCC20026 assessed as fungal growth inhibition incubated for 48 hrs by broth microdilution method; format: functional
[12] = system: Cryptococcus neoformans; assay: Antifungal activity against Cryptococcus neoformans clinical isolate 56992 assessed as fungal growth inhibition incubated for 72 hrs by broth microdilution method; format: functional
[13] = system: Cryptococcus neoformans; assay: Antifungal activity against Cryptococcus neoformans clinical isolate HN1 assessed as fungal growth inhibition incubated for 72 hrs by broth microdilution method; format: functional
[14] = system: Cryptococcus neoformans; assay: Antifungal activity against Cryptococcus neoformans clinical isolate HN2 assessed as fungal growth inhibition incubated for 72 hrs by broth microdilution method; format: functional
[15] = system: Cryptococcus neoformans; assay: Antifungal activity against Cryptococcus neoformans clinical isolate HN2-40 assessed as fungal growth inhibition incubated for 72 hrs by broth microdilution method; format: functional
[16] = system: Cryptococcus neoformans; assay: Antifungal activity against Cryptococcus neoformans clinical isolate HN15 assessed as fungal growth inhibition incubated for 72 hrs by broth microdilution method; format: functional
[17] = system: Cryptococcus neoformans; assay: Antifungal activity against Cryptococcus neoformans clinical isolate HN17 assessed as fungal growth inhibition incubated for 72 hrs by broth microdilution method; format: functional
[18] = system: Cryptococcus neoformans; assay: Antifungal activity against Cryptococcus neoformans clinical isolate HN19 assessed as fungal growth inhibition incubated for 72 hrs by broth microdilution method; format: functional
[19] = system: Cryptococcus neoformans; assay: Antifungal activity against Cryptococcus neoformans clinical isolate HN20 assessed as fungal growth inhibition incubated for 72 hrs by broth microdilution method; format: functional
[20] = system: Cryptococcus neoformans; assay: Antifungal activity against Cryptococcus neoformans clinical isolate SH68 assessed as fungal growth inhibition incubated for 72 hrs by broth microdilution method; format: functional
[21] = system: Cryptococcus neoformans; assay: Antifungal activity against Cryptococcus neoformans clinical isolate 443 assessed as fungal growth inhibition incubated for 72 hrs by broth microdilution method; format: functional
[22] = system: Cryptococcus neoformans; assay: Antifungal activity against Cryptococcus neoformans clinical isolate 444 assessed as fungal growth inhibition incubated for 72 hrs by broth microdilution method; format: functional
[23] = system: Cryptococcus neoformans; assay: Antifungal activity against Cryptococcus neoformans clinical isolate 445 assessed as fungal growth inhibition incubated for 72 hrs by broth microdilution method; format: functional
[24] = system: Cryptococcus gattii species complex; assay: Antifungal activity against Cryptococcus gattii clinical isolate SCZ20024 assessed as fungal growth inhibition incubated for 72 hrs by broth microdilution method; format: functional
[25] = system: Cryptococcus gattii species complex; assay: Antifungal activity against Cryptococcus gattii clinical isolate SCZ20031 assessed as fungal growth inhibition incubated for 72 hrs by broth microdilution method; format: functional
[26] = system: Pichia kudriavzevii; assay: Antifungal activity against Candida krusei ATCC2340 assessed as fungal growth inhibition incubated for 48 hrs in presence of Fluconazole by broth microdilution method; format: functional
[27] = system: Candida albicans; assay: Synergistic antifungal activity against Candida albicans SC5314 assessed as fractional inhibitory concentration index incubated for 48 hrs in presence of Fluconazole by broth microdilution method; format: functional
[28] = system: Cryptococcus neoformans; assay: Synergistic antifungal activity against Cryptococcus neoformans clinical isolate 445 assessed as fractional inhibitory concentration index incubated for 72 hrs in presence of Fluconazole by broth microdilution method; format: functional
[29] = system: Cryptococcus neoformans; assay: Antifungal activity against Cryptococcus neoformans H99 infected in Wax moth larvae assessed as reduction on fungal burden at 10 mg/kg measured after 9 days by 10 fold serial dilution method; format: functional; details: time 9 day
[30] = system: Cryptococcus neoformans; assay: Antifungal activity against Cryptococcus neoformans H99 infected in Wax moth larvae assessed as median survival time at 10 mg/kg measured after 9 days by Kaplan-Meier method; format: functional; details: time 9 day
[31] = system: Cryptococcus deuterogattii; assay: Antifungal activity against Cryptococcus gattii WM178 infected in Wax moth larvae assessed as median survival time at 10 mg/kg measured after 9 days by Kaplan-Meier method; format: functional, Cryptococcus gattii species complex; details: time 9 day
[32] = Cytotoxicity against human HUVEC cells assessed as inhibition on cell growth incubated for 24 hrs by CCK-8 assay; format: toxicity, cell-based
[33] = Cytotoxicity against human HUVEC cells assessed as cell viability at 256 ug/ml incubated for 24 hrs by CCK-8 assay; format: toxicity, cell-based; details: at 256 µg/mL, read-out: Activity
[34] = Cytotoxicity against human Caco-2 cells assessed as cell viability at 256 ug/ml incubated for 24 hrs by CCK-8 assay; format: toxicity, cell-based; details: at 256 µg/mL, read-out: Activity
[35] = Hemolytic activity in rabbit RBC at 16 ug/ml incubated for 1 hr by spectrophotometry; format: toxicity, cell-based, Oryctolagus cuniculus, Erythrocyte; details: red blood cells, at 16 µg/mL, read-out: Activity
[36] = Hemolytic activity in rabbit RBC at 256 ug/ml incubated for 1 hr by spectrophotometry; format: toxicity, cell-based, Oryctolagus cuniculus, Erythrocyte; details: red blood cells, at 256 µg/mL, read-out: Activity
[37] = Cytotoxicity against rabbit RBC assessed as cell growth inhibition incubated for 24 hrs by CCK-8 assay; format: toxicity, cell-based, Oryctolagus cuniculus, Erythrocyte; details: red blood cells
[38] = system: Cryptococcus neoformans; assay: Antifungal activity against Cryptococcus neoformans H99 infected in Wax moth larvae assessed as survival rate at 10 mg/kg measured after 9 days by Kaplan-Meier method; format: functional; details: H99, 216 h, time 9 day
[39] = system: Cryptococcus deuterogattii; assay: Antifungal activity against Cryptococcus gattii WM178 infected in Wax moth larvae assessed as survival rate at 10 mg/kg measured after 9 days by Kaplan-Meier method; format: functional, Cryptococcus gattii species complex; details: WM178, 216 h, time 9 day
[40] = system: Cryptococcus gattii species complex; assay: Antifungal activity against Cryptococcus gattii E566 assessed as fungal growth inhibition incubated for 72 hrs in presence of P163-0892 by broth microdilution method; format: functional
[41] = system: Cryptococcus neoformans; assay: Antifungal activity against Cryptococcus neoformans clinical isolate HN15 assessed as fungal growth inhibition incubated for 72 hrs in presence of P163-0892 by broth microdilution method; format: functional
[42] = system: Cryptococcus neoformans; assay: Antifungal activity against Cryptococcus neoformans clinical isolate HN20 assessed as fungal growth inhibition incubated for 72 hrs in presence of P163-0892 by broth microdilution method; format: functional
[43] = system: Cryptococcus neoformans; assay: Synergistic antifungal activity against Cryptococcus neoformans clinical isolate HN19 assessed as fractional inhibitory concentration index incubated for 72 hrs in presence of P163-0892 by broth microdilution method; format: functional
[44] = system: Cryptococcus deuterogattii; assay: Antifungal activity against Cryptococcus gattii WM178 infected in Wax moth larvae assessed as survival rate at 10 mg/kg measured after 9 days in presence of P163-0892 by Kaplan-Meier method; format: functional, Cryptococcus gattii species complex; details: WM178, 216 h, time 9 day

Row | Structure (SMILES) | MIC [1] | MIC [2] | MIC [3] | MIC [4] | MIC [5] | MIC [6] | MIC [7] | MIC [8] | MIC [9] | MIC [10] | MIC [11] | MIC [12] | MIC [13] | MIC [14] | MIC [15] | MIC [16] | MIC [17] | MIC [18] | MIC [19] | MIC [20] | other results
1 | CCCCNC(=O)c1c(O)c2sccc2n(Cc2ccccc2)c1=O | > 64 µg/mL | > 64 µg/mL | 0.25 µg/mL (≈ 0.701 µM) | 0.5 µg/mL (≈ 1.4 µM) | 0.5 µg/mL (≈ 1.4 µM) | 0.5 µg/mL (≈ 1.4 µM) | > 64 µg/mL | > 64 µg/mL | 0.5 µg/mL (≈ 1.4 µM) | > 64 µg/mL | > 64 µg/mL | 1 µg/mL (≈ 2.81 µM) | 0.5 µg/mL (≈ 1.4 µM) | 0.5 µg/mL (≈ 1.4 µM) | 0.5 µg/mL (≈ 1.4 µM) | 1 µg/mL (≈ 2.81 µM) | 1 µg/mL (≈ 2.81 µM) | 1 µg/mL (≈ 2.81 µM) | 0.25 µg/mL (≈ 0.701 µM) | 0.5 µg/mL (≈ 1.4 µM) | MIC [21]: 1 µg/mL (≈ 2.81 µM); MIC [22]: 0.5 µg/mL (≈ 1.4 µM); MIC [23]: 2 µg/mL (≈ 5.61 µM); MIC [24]: 1 µg/mL (≈ 2.81 µM); MIC [25]: 1 µg/mL (≈ 2.81 µM); MIC [26]: 8 µg/mL; fractional inhibitory concentration index (FICI) [27]: 1.008; fractional inhibitory concentration index (FICI) [28]: 0.375; Activity [29]: 5.7 log10CFU/g; MST [30]: 2.5 days; MST [31]: 3 days; IC50 at 24 h [32]: > 64 µg/mL; viability at 24 h, 256 ug/ml [33]: 107%; viability at 24 h, 256 ug/ml [34]: 104%; hemolysis at 1 h, 16 ug/ml [35]: 2.32%; hemolysis at 1 h, 256 ug/ml [36]: 2.47%; IC50 at 24 h [37]: > 256 µg/mL; survival at 10 mg/kg [38]: 30%; survival at 10 mg/kg [39]: 35%
2 | OC(Cn1cncn1)(Cn1cncn1)c1ccc(F)cc1F [FLUCONAZOLE] | 0.5 µg/mL (≈ 1.63 µM) | > 64 µg/mL | 16 µg/mL (≈ 52.2 µM) | 4 µg/mL (≈ 13.1 µM) | 4 µg/mL (≈ 13.1 µM) | 4 µg/mL (≈ 13.1 µM) | 1 µg/mL (≈ 3.27 µM) | > 64 µg/mL | 2 µg/mL (≈ 6.53 µM) | 8 µg/mL (≈ 26.1 µM) | 2 µg/mL (≈ 6.53 µM) | 2 µg/mL (≈ 6.53 µM) | 2 µg/mL (≈ 6.53 µM) | 2 µg/mL (≈ 6.53 µM) | 1 µg/mL (≈ 3.27 µM) | 4 µg/mL (≈ 13.1 µM) | 4 µg/mL (≈ 13.1 µM) | 4 µg/mL (≈ 13.1 µM) | 0.5 µg/mL (≈ 1.63 µM) | 8 µg/mL (≈ 26.1 µM) | MIC [21]: 8 µg/mL (≈ 26.1 µM); MIC [22]: 4 µg/mL (≈ 13.1 µM); MIC [23]: 8 µg/mL (≈ 26.1 µM); MIC [24]: 4 µg/mL (≈ 13.1 µM); MIC [25]: 8 µg/mL (≈ 26.1 µM); MIC [40]: 0.5 µg/mL; MIC [41]: 1 µg/mL; MIC [42]: 0.0625 µg/mL; fractional inhibitory concentration index (FICI) [43]: 0.281; Activity [29]: 5.3 log10CFU/g; MST [30]: 2.5 days; MST [31]: 3 days; survival at 10 mg/kg [44]: 70%; IC50 at 24 h [32]: > 64 µg/mL; viability at 24 h, 256 ug/ml [33]: 108%; viability at 24 h, 256 ug/ml [34]: 95.3%; hemolysis at 1 h, 16 ug/ml [35]: 2.65%; hemolysis at 1 h, 256 ug/ml [36]: 2.67%; survival at 10 mg/kg [38]: 35%; survival at 10 mg/kg [39]: 40%
